Reference: patent US9427428B2, “Benzimidazole-imidazole derivatives” (Janssen Sciences Ireland UC, priority 2009, dated 2016)

What was measured:
[1] = test system: HCV type 1b replicon (Huh-7 luc/neo cells); test: HCV replicon assay, stable transfection (Huh-Luc, luciferase); assay type: cell-based; settings: Hepatitis C virus, Huh-7, 72 h, three days incubation, average of all tests
Excerpt: The compounds of formula (I) were examined for inhibitory activity in the HCV replicon. This cellular assay is based on a bicistronic expression construct, as described by Lohmann et al. (Science (1999) 285: 110-113; Journal of Virology (2003) 77: 3007-3019) with modifications described by Krieger et al. (Journal of Virology (2001) 75: 4614-4624), and Lohmann et al. (Journal of Virology (2003) 77: 3007-3019) for genotype 1b and by Yi et al. (Journal of Virology (2004) 78: 7904-7915) for genotype 1a, in a multi-target screening strategy.
The method was as follows. The assay utilized the stably transfected cell line Huh-7 luc/neo (hereafter referred to as Huh-Luc). This cell line harbors an RNA encoding a bicistronic expression construct comprising the wild type NS3-NS5B regions of HCV type 1b translated from an Internal Ribosome Entry Site (IRES) from encephalomyocarditis virus (EMCV), preceded by a reporter portion (FfL-luciferase), and a selectable marker portion (neoR, neomycine phosphotransferase). The construct is flanked by 5′ and 3′ NTRs (non-translated regions) from HCV type 1b. Continued culture of the replicon cells in the presence of G418 (neoR) is dependent on the replication of the HCV RNA. The stably transfected replicon cells that replicate HCV RNA autonomously and to high levels, encoding inter alia luciferase, were used for screening the antiviral compounds.
The replicon cells were plated in 384 well plates in the presence of the test and control compounds which were added in various concentrations. Following an incubation of three days, HCV replication was measured by assaying luciferase activity (using standard luciferase assay substrates and reagents and a Perkin Elmer ViewLux™ ultraHTS microplate imager). Replicon cells in the control cultures have high luciferase expression in the absence of any inhibitor. The inhibitory activity of the compound was monitored on the Huh-Luc cells, enabling a dose-response curve for each test compound. EC50 values were then calculated, which represent the amount of compound required to decrease the level of detected luciferase activity by 50%, or more specifically, to reduce the ability of the genetically linked HCV replicon RNA to replicate.
Where a compound of formula (I) was tested more than once in the replicon assay, the average of all test results is given in this Table 2.

[2] = test system: HCV genotype 1b Con1 replicon (Huh-7 lunet cells); test: HCV replicon assay, transient transfection, genotype 1b; assay type: cell-based; settings: Hepatitis C virus, 48 h, genotype 1b Con1, two days incubation, luciferase
Excerpt: (§1) In a transient set-up, a Huh-7 lunet hepatoma cell line was transiently transfected with an autonomously replicating RNA encoding a bi-cistronic expression construct. This construct comprises a firefly luciferase reporter gene preceding the NS3-NS5B subgenomic region of HCV (genotype 1a H77 or 1b Con1). Translation of the HCV subgenomic region is mediated by an internal ribosome entry site of encephalomyocarditis virus. The construct is furthermore flanked by 5′ and 3′ untranslated regions of HCV (genotype 1a H77 or 1b Con 1, respectively), which allow for replication of the RNA.
(§2) Cells were plated in 384 well plates in the presence of test and control compounds, which were added in various concentrations. Following an incubation of two days, replication of the HCV subgenomic replicon RNA was measured by assaying luciferase activity (using standard luciferase assay substrates and reagents and a Perkin Elmer ViewLux™ ultraHTS microplate imager). HCV subgenomic replicon containing cells in the control cultures have high luciferase expression in the absence of any inhibitor. The inhibitory activity of the compound was monitored, enabling a dose-response curve for each test compound. EC50 values were then calculated, which represent the amount of compound required to decrease the level of detected luciferase activity by 50%, or more specifically, to reduce the ability of the genetically linked HCV subgenomic RNA to replicate.
(§3) Where a compound of formula (I) was tested more than once in the transient replicon assay, the average of all test results is given in Table 3.

[3] = test system: HCV genotype 1a H77 replicon (Huh-7 lunet cells); test: HCV replicon assay, transient transfection, genotype 1a; assay type: cell-based; settings: Hepatitis C virus, 48 h, genotype 1a H77, two days incubation, luciferase
Excerpt: as §1, §2, §3

[4] = Counterscreen MT4-LTR-Luc; assay type: cell-based; settings: human
Excerpt: (§4) Counterscreen cell lines included a Huh-7 hepatoma cell line containing a human cytomegalovirus major immediate-early promoter-Luc construct (Huh7-CMV-Luc) and an MT4 T-cell line containing a long terminal repeat-Luc reporter (MT4-LTR-Luc).

[5] = Counterscreen Huh7-CMV-Luc; assay type: cell-based; settings: human
Excerpt: as §4

[6] = test system: HCV genotype 1b replicon NS5A L28T; test: Transient HCV 1b replicon, NS5A mutant L28T; assay type: cell-based; settings: Hepatitis C virus, read-out: EC50 L28T
Excerpt: as §1
(§5) In addition to the wild-type constructs, site-directed mutations were introduced into the transient HCV genotype 1b replicon in the gene encoding for the non-structural protein 5A (NS5A). More precisely, amino acid residues 28, 30, 31 and 93 in NS5A were independently altered.
as §2

[7] = test system: HCV genotype 1b replicon NS5A R30H; test: Transient HCV 1b replicon, NS5A mutant R30H; assay type: cell-based; settings: Hepatitis C virus, read-out: EC50 R30H
Excerpt: as §1, §5, §2

[8] = test system: HCV genotype 1b replicon NS5A L31F; test: Transient HCV 1b replicon, NS5A mutant L31F; assay type: cell-based; settings: Hepatitis C virus, read-out: EC50 L31F
Excerpt: as §1, §5, §2

[9] = test system: HCV genotype 1b replicon NS5A L31M; test: Transient HCV 1b replicon, NS5A mutant L31M; assay type: cell-based; settings: Hepatitis C virus, read-out: EC50 L31M
Excerpt: as §1, §5, §2

[10] = test system: HCV genotype 1b replicon NS5A L31V; test: Transient HCV 1b replicon, NS5A mutant L31V; assay type: cell-based; settings: Hepatitis C virus, read-out: EC50 L31V
Excerpt: as §1, §5, §2

[11] = test system: HCV genotype 1b replicon NS5A Y93H; test: Transient HCV 1b replicon, NS5A mutant Y93H; assay type: cell-based; settings: Hepatitis C virus, read-out: EC50 Y93H
Excerpt: as §1, §5, §2

[12] = test system: HCV genotype 1b replicon NS5A Y93C; test: Transient HCV 1b replicon, NS5A mutant Y93C; assay type: cell-based; settings: Hepatitis C virus, read-out: EC50 Y93C
Excerpt: as §1, §5, §2

[13] = Pharmacokinetic analysis after single oral administration, liver concentration; assay type: in vivo; settings: male Sprague-Dawley rats, 10 mg/kg oral, solution in PEG400
Experimental: Compounds were dosed orally as a solution in PEG400 to male Sprague-Dawley rats at a dose level of 10 mg/kg. At serial time points, after dosing, the animals were sacrificed and liver samples collected. All samples were analyzed using a qualified research LC-MS/MS method to determine the concentration of the tested compounds in liver. Non-compartmental analysis using the lin/log trapezoidal rule was performed using WinNonlin™ Professional (Version 5.2.1).

Row | Compound | EC50 [1] [nM] | EC50 [2] [nM] | EC50 [3] [nM] | CC50 [4] [nM] | CC50 [5] [nM] | EC50 [6] [nM] | EC50 [7] [nM] | EC50 [8] [nM] | EC50 [9] [nM] | EC50 [10] [nM] | EC50 [11] [nM] | EC50 [12] [nM] | Liver AUC [13] [ng·h/g]
1 | COC(=O)N[C@H](C(=O)N1CCC[C@H]1c1ncc(-c2ccc3cc(-c4ccc5nc([C@@H]6CCCN6C(=O)[C@@H](NC(=O)OC)[C@@H](C)OC)[nH]c5c4)ccc3c2)[nH]1)C(C)C [Compound 9] | 0.007 | 0.007 | 0.03 | > 984 | > 984 | 0.081 | 0.045 | < 0.017 | 0.072 | 0.086 | 0.042 | < 0.013 | 6202
2 | CC[C@H](C)[C@H](NC(=O)OC)C(=O)N1CCC[C@H]1c1ncc(-c2ccc3cc(-c4ccc5nc([C@@H]6CCCN6C(=O)[C@@H](NC(=O)OC)[C@@H](C)CC)[nH]c5c4)ccc3c2)[nH]1 [Compound 8] | 0.003 | 0.005 | 0.204 | > 984 | > 984 | 0.206 | 0.116 | 0.016 | 0.258 | 0.311 | 0.587 | < 0.013 | 50655
3 | CC[C@H](C)[C@H](NC(=O)OC)C(=O)N1CCC[C@H]1c1nc2cc(-c3ccc4cc(-c5cnc([C@@H]6CCCN6C(=O)[C@@H](NC(=O)OC)[C@@H](C)OC)[nH]5)ccc4c3)ccc2[nH]1 [Compound 18] | 0.003 | 0.004 | 0.018 | 9680 | 8680 | 0.041 | 0.039 | 0.005 | 0.054 | 0.052 | 0.08 | 0.003 | 14091
4 | CC[C@H](C)[C@H](NC(=O)OC)C(=O)N1CCC[C@H]1c1ncc(-c2ccc3cc(-c4ccc5[nH]c([C@@H]6CCCN6C(=O)[C@@H](NC(=O)OC)[C@@H](C)OC)nc5c4)ccc3c2)[nH]1 [Compound 17] | 0.005 | 0.005 | 0.049 | 9300 | 11100 | 0.037 | 0.036 | 0.005 | 0.025 | 0.037 | 0.034 | 0.003 | 4213
5 | COC(=O)N[C@H](C(=O)N1CCC[C@H]1c1ncc(-c2ccc3cc(-c4ccc5nc([C@@H]6CCCN6C(=O)[C@@H](NC(=O)OC)C(C)C)[nH]c5c4)ccc3c2)[nH]1)C(C)C [Compound 3] | 0.007 | 0.008 | 0.051 | 5820 | 7640 | 0.229 | 0.072 | 0.032 | 0.184 | 0.504 | 0.47 | 0.012 | 23157
6 | COC(=O)N[C@H](C(=O)N1CCC[C@H]1c1ncc(-c2ccc3cc(-c4ccc5nc([C@@H]6CCCN6C(=O)[C@@H](NC(=O)OC)[C@@H](C)OC)[nH]c5c4)ccc3c2)[nH]1)[C@@H](C)OC [Compound 4] | 0.012 | 0.016 | 0.033 | > 984 | > 984 | 0.052 | 0.056 | 0.02 | 0.052 | 0.048 | 0.034 | 0.013 | 1539
7 | CC[C@H](C)[C@H](NC(=O)OC)C(=O)N1CCC[C@H]1c1ncc(-c2ccc3cc(-c4ccc5[nH]c([C@@H]6CCCN6C(=O)[C@@H](NC(=O)OC)C(C)C)nc5c4)ccc3c2)[nH]1 [Compound 16] | 0.003 | 0.003 | 0.098 | > 984 | > 984 | 0.151 | 0.07 | 0.017 | 0.093 | 0.411 | 0.343 | < 0.013 | 12630
8 | COC(=O)N[C@H](C(=O)N1CCC[C@H]1c1nc2ccc(-c3ccc4cc(-c5cnc([C@@H]6CCCN6C(=O)[C@@H](NC(=O)OC)[C@@H](C)OC)[nH]5)ccc4c3)cc2[nH]1)C(C)C [Compound 11] | 0.006 | 0.012 | 0.048 | > 984 | > 984 | 0.117 | 0.05 | 0.021 | 0.087 | 0.141 | 0.167 | < 0.013 | 7928
